Measurements: patent US12540129B2, “KIF18A inhibitors” (AMGEN INC., priority 2019, dated 2026)

Biological target: T1, Recombinant human KIF18A (1-467 His-tagged) protein (Homo sapiens, UniProt Q8NI77)
T1 construct: Recombinant human KIF18A (1-467 His-tagged) protein; His; made in house
Experiment: KIF18A Enzyme Assay: microtubule-stimulated ATPase activity (ADP-Glo)
Assay type: biochemical
Settings: 30 nM KIF18A, 75 μM ATP
Text: KIF18A Enzyme Assay: Microtubule-stimulated ATPase activity assay is used to measure KIF18A enzyme activity after treatment with compound. Compounds were 2-fold serially diluted in DMSO (Sigma Inc) over 22-point concentration range. Recombinant human KIF18A (1-467 His-tagged) protein was expressed using a baculovirus system and purified by affinity chromatography by Amgen Inc. Concentrations of KIF18A protein, microtubules (MT), and ATP in the reaction were optimized for standardized homogenous enzyme assay using ADP-Glorm Kinase/ATPase Assay Kit (Promega Inc). The assay measures ADP formed from the ATPase reaction. […] Read luminescence using EnVision microplate reader with ultra-luminescence module (Perkin Elmer Inc). Concentration-response curve-fitting and IC50 determination was performed using Genedata Screener Software (Standard 15.0.1, Genedata Inc) with a four-parameter logistic regression fit model.
Table A provides data for compounds exemplified in the present application and priority document thereof, as representative compounds of the present invention, as follows: chemical name (as named by either ACD software or ChemDraw (Professional 15.0)) and biological data (IC50 in μM). Ex. # refers to Example No.

T1 sequence (Q8NI77 1-467): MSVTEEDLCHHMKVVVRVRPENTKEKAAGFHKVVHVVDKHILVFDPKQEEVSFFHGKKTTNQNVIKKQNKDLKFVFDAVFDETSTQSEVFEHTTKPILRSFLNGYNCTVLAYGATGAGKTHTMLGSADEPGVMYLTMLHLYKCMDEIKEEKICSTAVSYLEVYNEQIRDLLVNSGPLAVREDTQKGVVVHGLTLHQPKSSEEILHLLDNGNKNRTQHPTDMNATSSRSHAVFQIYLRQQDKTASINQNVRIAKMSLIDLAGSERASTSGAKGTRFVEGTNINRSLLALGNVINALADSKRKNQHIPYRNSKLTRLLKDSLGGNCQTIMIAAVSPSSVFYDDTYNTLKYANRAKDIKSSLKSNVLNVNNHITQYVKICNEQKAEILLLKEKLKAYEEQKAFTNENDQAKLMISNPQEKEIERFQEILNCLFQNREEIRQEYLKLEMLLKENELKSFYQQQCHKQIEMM
T1 sequence (P02550 whole entry partner): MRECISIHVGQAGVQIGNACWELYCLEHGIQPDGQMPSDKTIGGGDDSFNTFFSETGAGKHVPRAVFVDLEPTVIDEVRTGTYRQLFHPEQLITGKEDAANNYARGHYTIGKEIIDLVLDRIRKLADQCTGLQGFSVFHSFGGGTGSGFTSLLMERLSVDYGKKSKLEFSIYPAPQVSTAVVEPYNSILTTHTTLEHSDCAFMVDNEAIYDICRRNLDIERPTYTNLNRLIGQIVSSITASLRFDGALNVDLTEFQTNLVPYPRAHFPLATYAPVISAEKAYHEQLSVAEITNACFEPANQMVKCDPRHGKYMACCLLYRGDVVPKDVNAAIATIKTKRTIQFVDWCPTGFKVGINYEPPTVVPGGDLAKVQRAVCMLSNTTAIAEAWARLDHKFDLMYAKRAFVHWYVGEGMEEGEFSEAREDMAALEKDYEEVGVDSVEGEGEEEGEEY
T1 sequence (P02554 whole entry partner): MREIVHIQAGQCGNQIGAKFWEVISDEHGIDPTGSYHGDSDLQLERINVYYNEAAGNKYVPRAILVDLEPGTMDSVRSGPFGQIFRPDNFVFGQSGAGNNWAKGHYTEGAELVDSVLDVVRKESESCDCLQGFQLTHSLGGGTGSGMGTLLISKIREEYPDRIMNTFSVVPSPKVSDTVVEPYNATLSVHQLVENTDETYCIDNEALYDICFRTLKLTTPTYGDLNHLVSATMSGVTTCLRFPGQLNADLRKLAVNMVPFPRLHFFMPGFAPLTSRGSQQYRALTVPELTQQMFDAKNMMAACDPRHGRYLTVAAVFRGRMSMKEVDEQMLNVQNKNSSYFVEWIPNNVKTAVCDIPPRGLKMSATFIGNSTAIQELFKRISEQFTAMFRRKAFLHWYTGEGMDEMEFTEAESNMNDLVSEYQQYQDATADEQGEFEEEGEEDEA

| IC50 | SMILES |
| --- | --- |
| 517 nM | O=C(Nc1cccc(S(=O)(=O)NC2CC2)c1)c1cccnc1N1CCC2(CC1)CC2 [Example 101, N-(3-(N-cyclopropylsulfamoyl)phenyl)-2-(6-azaspiro[2.5]octan-6-yl)nicotinamide] |
| 323 nM | O=C(Nc1cccc(S(=O)(=O)NC2CCC2)c1)c1cccnc1N1CCC2(CC1)CC2 [Example 101-1, N-(3-(N-cyclobutylsulfamoyl)phenyl)-2-(6-azaspiro[2.5]octan-6-yl)nicotinamide] |
| 610 nM | CN(C1CCC1)S(=O)(=O)c1cccc(NC(=O)c2cccnc2N2CCC3(CC2)CC3)c1 [Example 101-2, N-(3-(N-cyclobutyl-N-methylsulfamoyl)phenyl)-2-(6-azaspiro[2.5]octan-6-yl)nicotinamide] |
| 189 nM | CC1(NS(=O)(=O)c2cccc(NC(=O)c3cccnc3N3CCC4(CC3)CC4)c2)CCC1 [Example 101-3, N-(3-(N-(1-methylcyclobutyl)sulfamoyl)phenyl)-2-(6-azaspiro[2.5]octan-6-yl)nicotinamide] |
| 918 nM | O=C(Nc1cccc(S(=O)(=O)NC2CCCCC2)c1)c1cccnc1N1CCC2(CC1)CC2 [Example 101-4, N-(3-(N-cyclohexylsulfamoyl)phenyl)-2-(6-azaspiro[2.5]octan-6-yl)nicotinamide] |
| 401 nM | O=C(Nc1cccc(S(=O)(=O)N2CC(F)(F)C2)c1)c1cccnc1N1CCC2(CC1)CC2 [Example 101-5, N-(3-((3,3-difluoroazetidin-1-yl)sulfonyl)phenyl)-2-(6-azaspiro[2.5]octan-6-yl)nicotinamide] |
| 581 nM | O=C(Nc1cccc(S(=O)(=O)N2CCC(F)(F)C2)c1)c1cccnc1N1CCC2(CC1)CC2 [Example 101-6, N-(3-((3,3-difluoropyrrolidin-1-yl)sulfonyl)phenyl)-2-(6-azaspiro[2.5]octan-6-yl)nicotinamide] |
| 320 nM | CC1(NS(=O)(=O)c2cccc(NC(=O)c3cccnc3N3CCC4(CC3)CC4)c2)CC1 [Example 101-7, N-(3-(N-(1-methylcyclopropyl)sulfamoyl)phenyl)-2-(6-azaspiro[2.5]octan-6-yl)nicotinamide] |
| 279 nM | CC(C)(CF)NS(=O)(=O)c1cccc(NC(=O)c2cccnc2N2CCC3(CC2)CC3)c1 [Example 101-8, N-(3-(N-(1-fluoro-2-methylpropan-2-yl)sulfamoyl)phenyl)-2-(6-azaspiro[2.5]octan-6-yl)nicotinamide] |
| 474 nM | O=C(Nc1cccc(S(=O)(=O)NC2CC(F)(F)C2)c1)c1cccnc1N1CCC2(CC1)CC2 [Example 101-9, N-(3-(N-(3,3-difluorocyclobutyl)sulfamoyl)phenyl)-2-(6-azaspiro[2.5]octan-6-yl)nicotinamide] |
| 393 nM | O=C(Nc1cccc(S(=O)(=O)Nc2ccc(F)cc2)c1)c1cccnc1N1CCC2(CC1)CC2 [Example 101-10, N-(3-(N-(4-fluorophenyl)sulfamoyl)phenyl)-2-(6-azaspiro[2.5]octan-6-yl)nicotinamide] |
| 196 nM | CC1(C)CCN(c2ccc(C(=O)Nc3cccc(S(=O)(=O)NC(C)(C)C)c3)c(N3CCC4(CC3)CC4)n2)C1 [Example 102-1, N-(3-(N-(tert-butyl)sulfamoyl)phenyl)-6-(3,3-dimethylpyrrolidin-1-yl)-2-(6-azaspiro[2.5]octan-6-yl)nicotinamide] |
| 302 nM | CC(C)(C)NS(=O)(=O)c1cccc(NC(=O)c2ccc(N3CCC(F)(F)C3)nc2N2CCC3(CC2)CC3)c1 [Example 102-2, N-(3-(N-(tert-butyl)sulfamoyl)phenyl)-6-(3,3-difluoropyrrolidin-1-yl)-2-(6-azaspiro[2.5]octan-6-yl)nicotinamide] |
| 342 nM | CC(C)(C)NS(=O)(=O)c1cccc(NC(=O)c2ccc(N3CCCC3(C)C)nc2N2CCC3(CC2)CC3)c1 [Example 102-3, N-(3-(N-(tert-butyl)sulfamoyl)phenyl)-6-(2,2-dimethylpyrrolidin-1-yl)-2-(6-azaspiro[2.5]octan-6-yl)nicotinamide] |
| 234 nM | CC(C)(C)NS(=O)(=O)c1cccc(NC(=O)c2ccc(N3CC[C@H](O)C3)nc2N2CCC3(CC2)CC3)c1 [Example 102-4, (S)-N-(3-(N-(tert-butyl)sulfamoyl)phenyl)-6-(3-hydroxypyrrolidin-1-yl)-2-(6-azaspiro[2.5]octan-6-yl)nicotinamide] |
| 191 nM | CC(C)(C)NS(=O)(=O)c1cccc(NC(=O)c2ccc(N3C[C@H]4C[C@H]4C3)nc2N2CCC3(CC2)CC3)c1 [Example 102-5] |
| 200 nM | CC(C)(C)NS(=O)(=O)c1cccc(NC(=O)c2ccc(N3CC[C@@H]4C[C@@H]43)nc2N2CCC3(CC2)CC3)c1 [Example 102-6, 6-((1S,5R)-2-azabicyclo[3.1.0]hexan-2-yl)-N-(3-(N-(tert-butyl)sulfamoyl)phenyl)-2-(6-azaspiro[2.5]octan-6-yl)nicotinamide] |
| 238 nM | CC(C)(C)NS(=O)(=O)c1cccc(NC(=O)c2ccc(N3CCOCC3)nc2N2CCC3(CC2)CC3)c1 [Example 102-7, N-(3-(N-(tert-butyl)sulfamoyl)phenyl)-6-morpholino-2-(6-azaspiro[2.5]octan-6-yl)nicotinamide] |
| 104 nM | CC(C)(C)NS(=O)(=O)c1cccc(NC(=O)c2ccc(N3C[C@H]4C[C@@H]3CO4)nc2N2CCC3(CC2)CC3)c1 [Example 102-8, 6-((1R,4R)-2-oxa-5-azabicyclo[2.2.1]heptan-5-yl)-N-(3-(N-(tert-butyl)sulfamoyl)phenyl)-2-(6-azaspiro[2.5]octan-6-yl)nicotinamide] |
| 127 nM | CC(C)(C)NS(=O)(=O)c1cccc(NC(=O)c2ccc(N3CC[C@H]4CC[C@@H]3O4)nc2N2CCC3(CC2)CC3)c1 [Example 102-9, 6-((1S,5R)-8-oxa-2-azabicyclo[3.2.1]octan-2-yl)-N-(3-(N-(tert-butyl)sulfamoyl)phenyl)-2-(6-azaspiro[2.5]octan-6-yl)nicotinamide] |
| 118 nM | CC(C)(C)NS(=O)(=O)c1cccc(NC(=O)c2ccc(N3CCC3)nc2N2CCC3(CC2)CC3)c1 [Example 102-10, 6-(azetidin-1-yl)-N-(3-(N-(tert-butyl)sulfamoyl)phenyl)-2-(6-azaspiro[2.5]octan-6-yl)nicotinamide] |
| 159 nM | CC(C)(C)NS(=O)(=O)c1cccc(NC(=O)c2ccc(N3CC(C#N)C3)nc2N2CCC3(CC2)CC3)c1 [Example 102-11, N-(3-(N-(tert-butyl)sulfamoyl)phenyl)-6-(3-cyanoazetidin-1-yl)-2-(6-azaspiro[2.5]octan-6-yl)nicotinamide] |
| 591 nM | COC1CN(c2ccc(C(=O)Nc3cccc(S(=O)(=O)NC(C)(C)C)c3)c(N3CCC4(CC3)CC4)n2)C1 [Example 102-12, N-(3-(N-(tert-butyl)sulfamoyl)phenyl)-6-(3-methoxyazetidin-1-yl)-2-(6-azaspiro[2.5]octan-6-yl)nicotinamide] |
| 196 nM | CC1(O)CN(c2ccc(C(=O)Nc3cccc(S(=O)(=O)NC(C)(C)C)c3)c(N3CCC4(CC3)CC4)n2)C1 [Example 102-13, N-(3-(N-(tert-butyl)sulfamoyl)phenyl)-6-(3-hydroxy-3-methylazetidin-1-yl)-2-(6-azaspiro[2.5]octan-6-yl)nicotinamide] |
| 280 nM | CC(C)(C)NS(=O)(=O)c1cccc(NC(=O)c2ccc(N3CC(O)(C(F)(F)F)C3)nc2N2CCC3(CC2)CC3)c1 [Example 102-14, N-(3-(N-(tert-butyl)sulfamoyl)phenyl)-6-(3-hydroxy-3-(trifluoromethyl)azetidin-1-yl)-2-(6-azaspiro[2.5]octan-6-yl)nicotinamide] |
